# Reference: PubChem BioAssay AID1320 (NMMLSC, 2008)
# Active and inactive are the calls of the source. No rule for the calls is given here.
# Target: Bcl-2-related protein A1 (Homo sapiens) (UniProt Q16548)
# Assay: inhibitors of Bim binding to Bfl-1, dose response, biochemical, multiplexed, bead-based flow cytometry (AID 1320); also: test concentration not given here
# Settings: Bim peptide-Bfl-1 binding, fluorescence
# Chain of Bcl-2-related protein A1 (Homo sapiens) (Q16548 whole entry, looked up): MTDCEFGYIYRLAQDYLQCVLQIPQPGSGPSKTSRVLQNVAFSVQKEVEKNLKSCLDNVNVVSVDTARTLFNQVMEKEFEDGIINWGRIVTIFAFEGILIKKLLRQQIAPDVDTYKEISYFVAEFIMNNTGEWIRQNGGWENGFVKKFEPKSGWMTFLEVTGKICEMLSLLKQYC
row,percent span (inhibition),Compound
1,inactive,Cn1c(CNc2nc(-c3ccccc3)cs2)nnc1SCC(=O)N1CCc2ccccc21
2,inactive,CCOC(=O)/C(=C\c1ccc(Cl)cc1)c1nc2sc(C)c(C)c2c(=O)[nH]1
3,inactive,O=C(C1=C(Nc2ccccc2)c2ccccc2S(=O)(=O)N1)c1ccccc1
4,inactive,COC(=O)c1[nH]c2ccccc2c1NC(=O)c1ccccc1[N+](=O)[O-]
5,inactive,Cc1ccc(NC(=O)CSc2nc3ccccc3c(=O)n2CCCN2CCCCC2)cc1Cl
6,inactive,OCCC1CN(Cc2nc3c(s2)CCCC3)CCN1Cc1ccsc1 (stereo not given)
7,inactive,CNC(=O)c1sc(-c2ccccn2)nc1C
8,inactive,O=C(CSc1nnc(-c2ccco2)n1Cc1ccccc1)c1ccccc1
9,inactive,CC(=O)c1ccc2c(c1)C1C=CCC1C(c1ccncc1)N2 (stereo not given)
10,inactive,Cc1ccc(N=c2ssnc2Cl)cc1
11,inactive,COc1ccc(NC(=O)/C(Cl)=C(/Cl)S(=O)Cc2ccccc2)cn1 (stereo not given)
12,inactive,O=C(O)CC1S/C(=N/N=C/C=C/c2ccccc2[N+](=O)[O-])NC1=O (stereo not given)
13,inactive,CCn1c(SCC(=O)Nc2ccc(C)cc2)nnc1-c1ccc(O)cc1
14,inactive,O=C(/C=C/c1c(F)cccc1Cl)Nc1ccncc1
15,inactive,COc1ccc(C2=Nn3c(nnc3-c3ccco3)SC2)cc1OC

# Further lines, the compound ahead of its results:
row,Compound,percent span (inhibition)
1,O=C(N/N=C/c1cccc([N+](=O)[O-])c1)c1cccs1,inactive
2,CC(C)NS(=O)(=O)c1ccc(OCC(=O)Nc2ccc(F)cc2)cc1,inactive
3,Cc1ccc2c(c1)c(C)c(C)n2CC(O)Cn1nc(C)c(Br)c1C (stereo not given),inactive
4,CC(=O)Nc1ccc(NC2=C(Cl)C(=O)c3ccccc3C2=O)cc1,inactive
5,Cc1ccccc1OCC(=O)N/N=C/c1ccccn1,inactive
6,CNC(=S)N(Cc1cccs1)Cc1cc2ccc(OC)cc2[nH]c1=O,inactive
7,CCOC(=O)c1cc2c(=O)n3cccc(C)c3nc2n(Cc2ccco2)c1=NC(=O)c1ccccc1,inactive
8,Cc1ccc(-c2cc(C(=O)N3CCN(c4ncccn4)CC3)c3cc(Br)ccc3n2)o1,inactive
9,Cc1cccc(-n2c(-c3ccncc3)n[nH]c2=S)c1,inactive
10,CN(C)S(=O)(=O)N(CC(=O)Nc1ccccc1C(F)(F)F)c1ccccc1,inactive
11,CC(C)=C1C(=O)NN(c2ccc(C)c(Cl)c2)C1=O,inactive
12,CCOC(=O)c1snc(-c2ccc(F)cc2)c1N,inactive
13,NC(=O)c1sc2nc3c(c(-c4ccco4)c2c1N)CCC3,inactive
14,CNC(=O)/C(C#N)=C/c1c(N(Cc2ccccc2)Cc2ccccc2)nc2c(C)cccn2c1=O,inactive
15,Cc1cccc(-c2nnc3n2N=C(c2ccccc2)CS3)c1,inactive
